Test results taken from US20070189970A1, “Contrast medium for thrombus formation” (Astellas Pharma Inc., priority 2004, published 2007).
Where a name gives a salt, the structure may show the parent alone.

Experiments:
resting GPIIb/IIIa = target: T1, resting GPIIb/IIIa (Homo sapiens, UniProt P05106+P08514); experiment: Test 2: suppression activity of fibrinogen adhesion of prostaglandin E1 (PGE1)-treated platelet; assay type: cell-based; conditions: for IC50: washed PGE1 (1 μM)-treated platelets, plates coated with human fibrinogen 1 μg/well, 37° C. 30 min, read-out: R Suppression of fibrinogen adhesion IC50
T1 construct: Platelet rich plasma (PRP) was prepared by centrifugation of whole blood; endogenous in cells; host or cells: washed platelets from venous blood, kept resting with 1 μM PGE1
Procedure: Test 2: Measurement of Suppression Activity of Fibrinogen Adhesion of Prostaglandin E1 (PGE 1)-treated Platelet
Venous blood was collected onto sodium citrate. Platelet rich plasma (PRP) was prepared by centrifugation of whole blood. Platelets were washed with modified HEPES-Tyrode's buffer (129 mM NaCl, 2.8 mM KCl, 0.8 mM KH2PO4, 8.9 mM NaHCO3, 0.8 mM MgCl2, 10 mM HEPES, 5.5 mM Glucose, 0.1% BSA,.pH 7.4) containing 1μM PGE1. After washing, platelets were suspended in modified HEPES-Tyrode's buffer containing 1.0 mM CaCl2 and 1 μM PGE1 and the number of platelet was adjusted.
Adhesion assay was carried out as follows. 96-well microtiter plates were coated with 1 μg/well of human fibrinogen. The plates were then blocked with 1% BSA. After washing the plates with the buffer, the washed platelets were added to each well in the presence of the test compound or buffer and incubated at 37° C. for 30 min. The plates were then washed three times with buffer. The number of adhered cells was determined by measuring the acid phosphatase activity of cells using a microplate reader at 410 nm. Percent inhibition of adhesion in the sample treated with the test compound was calculated by comparison with the adhesion in absence of the test compound. The activity of the test compound was represented by a value of IC50, i.e. a dose required for the […] inhibition of the platelet adhesion.

active GPIIb/IIIa = target: T2, active GPIIb/IIIa (Homo sapiens, UniProt P05106+P08514); experiment: Test 1: inhibitory activity of adenosine diphosphate (ADP)-induced platelet aggregation in platelet rich plasma; assay type: cell-based; conditions: for R/A ratio: IC50 (R) of Test 2 / IC50 (A) of Test 1, selective binding ability toward the active GPIIb/IIIa; for IC50: human PRP 3×10^8 platelets/ml, 37° C., read-out: A Inhibition of platelet aggregation IC50
T2 construct: Platelet rich plasma (PRP) containing 3×10^8 platelets/ml was prepared from human blood; endogenous in cells
Procedure: Test 1: Measurement of Inhibitory Activity of Adenosine Diphosphate (ADP)-induced Platelet Aggregation
Platelet rich plasma (PRP) containing 3×10^8 platelets/ml was prepared from human blood. To 225 μl of PRP, 25 μl of a solution of the test compound was added and stirred at 37° C. for 2 min. To the solution, 5 μl of ADP (final concentration: 2.5 μM) was added as an aggregation inducing agent. Aggregation was measured with aggregometer (NBS HEMA-TRACER 801). The procedure was as follows. Light transmittance of PRP was calibrated to 100%. PRP was incubated in the aggregometer at 37° C. for 2 min. ADP was added […], and the change in light transmittance was monitored by PL500 recorder (Yokogawa, Japan). Percent inhibition of aggregation by the test compound was calculated by comparison with the aggregation in the absence of the test compound. The activity of an […] (test compound) is represented as a value of IC50, i.e., a dose required for the […] inhibition of the platelet aggregation.

monkey thrombus model = experiment: Accumulation of radioactivity at thrombus, blood and muscle in monkey thrombus model (PET, gamma counter); assay type: in vivo, monkey (Macaca fasciculans); conditions: 90 min after the administration
Text: Kinetics of the labeled compounds in the body of monkey (Macaca fasciculans) was studied by using the contrast mediums labeled with [^11C] and [^18F] prepared in Production Examples 21 and 22, respectively.
According to the canine saphenous vein (which is formed with a confluence of dorsal digital veins of hallux and arcuate veins of foot, and ascends in front of a medial malleolus and behind of a medial condyle of femur, crosses a saphenous opening of patellar retinaculum and pour into a femoral vein over a femoral triangle) thrombosis model (Knight L. C. et al., Thromb Haemost., 1998, 80, p.845-851 and Lister-James L. et al., J. Nucl Med. 1996, 37, p.775-781), a platinum embolization coil (Boston Scientific Japan) was inserted and placed in the right femoral vein of the monkey while anesthetized and wound was sutured.
Three hours after the insertion of the coil, the contrast mediums prepared in Production Examples 21 and 22, respectively, were administered intravenously (740 MBq/2 ml-saline). Imaging was performed for 90 min with a high-resolution positron emission tomography (PET) scanner (SHR-7700, Hamamatsu Photonics K.K., Japan). After PET measurement, the coil was removed, and the right femoral vein was collected to obtain a thrombus sample. Thigh muscle was collected, and saphenous artery was punctured to collect an arterial blood sample. The thrombus, thigh muscle and arterial blood samples were weighed and their radioactivity was measured with gamma counter (1480 WIZARD, Wallac Oy, Finland).
Data was calculated as percent of injected dose ([…]).

[1] = listed as Production Example 21

T2 sequence (P08514 32-887 limits assumed): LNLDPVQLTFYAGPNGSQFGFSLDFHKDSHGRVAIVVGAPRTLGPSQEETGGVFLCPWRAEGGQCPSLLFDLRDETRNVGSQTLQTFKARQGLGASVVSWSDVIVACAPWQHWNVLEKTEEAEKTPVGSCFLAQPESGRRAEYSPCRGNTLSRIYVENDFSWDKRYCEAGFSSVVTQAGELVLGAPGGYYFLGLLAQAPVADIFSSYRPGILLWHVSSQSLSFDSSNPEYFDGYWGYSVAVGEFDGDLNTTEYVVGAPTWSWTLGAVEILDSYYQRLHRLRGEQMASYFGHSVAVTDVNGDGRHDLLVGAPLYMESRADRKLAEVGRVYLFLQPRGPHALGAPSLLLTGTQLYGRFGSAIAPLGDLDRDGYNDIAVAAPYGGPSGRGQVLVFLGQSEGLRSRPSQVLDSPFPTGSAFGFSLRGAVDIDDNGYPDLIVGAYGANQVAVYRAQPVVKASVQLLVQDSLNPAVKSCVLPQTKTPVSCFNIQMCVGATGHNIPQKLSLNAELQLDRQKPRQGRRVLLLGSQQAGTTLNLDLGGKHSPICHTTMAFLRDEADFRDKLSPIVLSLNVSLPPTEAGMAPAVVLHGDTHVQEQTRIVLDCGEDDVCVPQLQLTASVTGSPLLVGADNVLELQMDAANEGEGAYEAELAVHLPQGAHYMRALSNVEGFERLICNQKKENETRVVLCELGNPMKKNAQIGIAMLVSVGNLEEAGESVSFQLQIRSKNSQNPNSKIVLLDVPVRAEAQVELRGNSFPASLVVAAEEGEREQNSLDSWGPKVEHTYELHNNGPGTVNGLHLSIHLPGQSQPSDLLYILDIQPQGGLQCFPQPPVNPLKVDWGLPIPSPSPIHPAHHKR
T2 sequence (P08514 891-1039 partner limits assumed): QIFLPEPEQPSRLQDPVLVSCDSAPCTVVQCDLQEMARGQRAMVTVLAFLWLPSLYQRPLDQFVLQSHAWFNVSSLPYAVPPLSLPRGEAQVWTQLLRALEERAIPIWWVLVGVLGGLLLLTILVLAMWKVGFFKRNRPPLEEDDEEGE
T2 sequence (P05106 27-788): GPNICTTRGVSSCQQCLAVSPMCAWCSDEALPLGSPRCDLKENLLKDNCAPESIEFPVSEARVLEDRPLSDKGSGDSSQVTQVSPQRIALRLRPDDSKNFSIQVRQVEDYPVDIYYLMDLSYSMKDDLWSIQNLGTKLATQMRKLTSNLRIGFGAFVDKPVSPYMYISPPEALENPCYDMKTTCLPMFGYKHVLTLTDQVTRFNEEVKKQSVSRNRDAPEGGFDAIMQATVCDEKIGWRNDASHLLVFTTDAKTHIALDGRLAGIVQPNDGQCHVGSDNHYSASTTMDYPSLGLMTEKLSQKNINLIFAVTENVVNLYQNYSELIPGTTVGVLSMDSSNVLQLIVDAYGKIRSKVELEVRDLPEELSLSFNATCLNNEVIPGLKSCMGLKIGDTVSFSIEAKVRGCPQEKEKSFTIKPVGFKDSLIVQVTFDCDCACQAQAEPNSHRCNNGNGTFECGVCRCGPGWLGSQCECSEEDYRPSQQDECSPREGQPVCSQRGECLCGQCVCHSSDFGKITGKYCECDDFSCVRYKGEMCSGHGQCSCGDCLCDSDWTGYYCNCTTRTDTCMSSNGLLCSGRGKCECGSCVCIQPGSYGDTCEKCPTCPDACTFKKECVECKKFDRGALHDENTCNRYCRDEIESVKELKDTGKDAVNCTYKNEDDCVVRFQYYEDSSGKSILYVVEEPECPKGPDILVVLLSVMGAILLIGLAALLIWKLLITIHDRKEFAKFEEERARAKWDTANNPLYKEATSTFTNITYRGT
T1 sequence (P08514 32-887 limits assumed): as the sequence (P08514 32-887 limits assumed) above
T1 sequence (P08514 891-1039 partner limits assumed): as the sequence (P08514 891-1039 partner limits assumed) above
T1 sequence (P05106 27-788): as the sequence (P05106 27-788) above

Molecule	R/A ratio (active GPIIb/IIIa)	IC50 (resting GPIIb/IIIa) [nM]	IC50 (active GPIIb/IIIa; ADP final concentration 2.5 μM) [nM]	further results
Echistatin [compound 1, reference compound]	0.38	–	–	R Suppression of fibrinogen adhesion IC50 (resting GPIIb/IIIa; PGE1-treated platelets, human fibrinogen coated plates, value printed in μg/ml): 0.14 µg/mL; A Inhibition of platelet aggregation IC50 (active GPIIb/IIIa; human PRP, ADP final concentration 2.5 μM, value printed in μg/ml): 0.36 µg/mL
CC(=O)N[C@@H](CNC(=O)[C@H]1CCCN(C(=O)CCC2CCNCC2)C1)C(=O)O [Ex. 12]	6.5	5160	791	–
CCC(=O)N[C@@H](CNC(=O)[C@@H]1CCCN(C(=O)CCC2CCNCC2)C1)C(=O)O [Ex. 8]	–	1520	49	–
[11CH3]N(CC(=O)c1ccc(OCC(=O)O)c(OCC(=O)O)c1)C(=O)/C=C/C1CCNCC1 [Production Ex. 21, 2,2′-[[4-({[^11C]methyl[(2E)-3-(4-piperidinyl)-2-propenoyl]amino}acetyl)-1,2-phenylene]bis(oxy)]diacetic acid trifluoroacetate]	–	–	–	Thrombus/Blood ratio (monkey thrombus model): 24.2 ± 17.9; Thrombus/Muscle ratio (monkey thrombus model): 94.8 ± 65.0; Thrombus/Blood ratio (monkey thrombus model; [1]): approximately 24; Thrombus/Muscle ratio (monkey thrombus model; [1]): approximately 95; Blood accumulation of radioactivity (monkey thrombus model; intravenous 740 MBq, arterial blood): 0.084 ± 0.012 % ID/g/kg; Muscle accumulation of radioactivity (monkey thrombus model; intravenous 740 MBq, thigh muscle): 0.021 ± 0.005 % ID/g/kg; Thrombus accumulation of radioactivity (monkey thrombus model; intravenous 740 MBq, thrombus): 1.902 ± 1.132 % ID/g/kg
CC(C)CC(=O)Nc1cccc(C(=O)N[C@@H](CNC(=O)[C@H]2CCCN(C(=O)CCC3CCNCC3)C2)C(=O)O)c1 [Ex. 20]	8.0	239	30	–
COC(=O)COc1ccc(C(=O)N[C@H](CNC(=O)[C@@H]2CCCN(C(=O)CCC3CCNCC3)C2)C(=O)O)cc1 [Ex. 17]	16	486	29.9	–
CN(CC(=O)c1ccc(OCC(=O)O)c(OCC(=O)O)c1)C(=O)/C=C/C1CCNCC1 [Ex. 1, 2,2′-{[4-([methyl[(2E)-3-(4-piperidinyl)-2-propenoyl]amino}acetyl)-1,2-phenylene]bis(oxy)]diacetic acid hydrochloride]	59	7900	135	–
CC(C)CCC(=O)Nc1cccc(C(=O)N[C@@H](CNC(=O)[C@H]2CCCN(C(=O)CCC3CCNCC3)C2)C(=O)O)c1 [Ex. 19]	17	151	9.1	–
CN(CC(=O)c1ccc(OCC(=O)O)c(OCCF)c1)C(=O)/C=C/C1CCNCC1 [Ex. 15]	19	6210	320	–
CC(=O)OCC(=O)N[C@H](CNC(=O)[C@@H]1CCCN(C(=O)CCC2CCNCC2)C1)C(=O)O [Ex. 9]	13	727	55	–
CC(C)CCCOc1ccc(C(=O)N[C@@H](CNC(=O)[C@H]2CCCN(C(=O)CCC3CCNCC3)C2)C(=O)O)cc1 [Ex. 18]	7.9	48	6.1	–
COc1ccc(CCC(=O)N[C@H](CNC(=O)[C@@H]2CCCN(C(=O)CCC3CCNCC3)C2)C(=O)O)cc1 [Ex. 7]	15	533	35	–
N=C(N)c1ccc(C(=O)N[C@@H](Cc2ccc(O)cc2)C(=O)N2CCC(OCC(=O)O)CC2)cc1 [Reference Ex. 3, Lamifiban, reference compound]	1.8	80	45	–
CC(C)[C@H](NC(=O)[C@H](CC(=O)O)NC(=O)CCCOc1ccc(C(=N)N)cc1)C(=O)O [Reference Ex. 4, FK633, reference compound]	13	1320	103	–

Now from value to molecule, other results behind:

R/A ratio (active GPIIb/IIIa)	IC50 (resting GPIIb/IIIa) [nM]	IC50 (active GPIIb/IIIa; ADP final concentration 2.5 μM) [nM]	Molecule	further results
6.3	1630	260	N=C(N)c1ccc(OCC(=O)Nc2ccc(OCC(=O)O)c(C(=O)O)c2)cc1 [Ex. 4]	–
9.2	2510	272	N[C@@H](CNC(=O)[C@@H]1CCCN(C(=O)CCC2CCNCC2)C1)C(=O)O [Ex. 10]	–
6.5	479	88	COc1ccc(CCC(=O)N[C@@H](CNC(=O)[C@@H]2CCCN(C(=O)CCC3CCNCC3)C2)C(=O)O)cc1 [Ex. 11]	–
6.1	198	32.4	CCCCCCC(=O)N[C@H](CNC(=O)[C@@H]1CCCN(C(=O)CCC2CCNCC2)C1)C(=O)O [Ex. 16]	–
7.8	434	56	CC(=O)N[C@@H](CNC(=O)[C@@H]1CCCN(C(=O)/C=C/C2CCNCC2)C1)C(=O)O [Ex. 6]	–
14	4050	291	COc1cc(C(=O)CN(C)C(=O)/C=C/C2CCNCC2)ccc1OCC(=O)O [Ex. 14]	–
18	1350	73	CC(NCOc1ccc(C(=N)N)cc1)C(=O)N[C@@H](CC(=O)O)C(=O)N[C@@H](C(=O)N1CCS(=O)(=O)CC1)C(C)C (stereo partly drawn) [Ex. 3]	–
